# Measured values reported in the NIST ThermoML archive (doi:10.1016/j.jct.2015.08.013).
# ± gives the expanded uncertainty stated by the source.
# Key:
# [1] = 100 kPa, Liquid; for viscosity: Capillary tube (Ostwald / Ubbelohde) method; for mass density: Vibrating tube method
# [2] = xn = mol fraction of the nth substance listed; conditions: 100 kPa, Liquid, x1 = 1; for mass density: Vibrating tube method; for viscosity: Capillary tube (Ostwald / Ubbelohde) method
structure (smiles),measurement,setting,value
"CC1COC(=O)O1 (stereo not given) [4-methyl-1,3-dioxolan-2-one]",viscosity,[1]; 298.15 K,2.52 ± 0.052 mPa·s
same,viscosity,[1]; 303.15 K,2.27 ± 0.047 mPa·s
same,viscosity,[1]; 308.15 K,2.08 ± 0.043 mPa·s
same,viscosity,[1]; 313.15 K,1.91 ± 0.04 mPa·s
same,viscosity,[1]; 318.15 K,1.75 ± 0.036 mPa·s
same,viscosity,[1]; 323.15 K,1.62 ± 0.034 mPa·s
CN1CCCC1=O [N-methylpyrrolidone] + O=C1CCCO1,mass density,[2]; 293.15 K,1032.66 ± 1.6 kg/m3
same,viscosity,[2]; 298.15 K,1.677 ± 0.036 mPa·s
same,mass density,[2]; 298.15 K,1028.17 ± 1.6 kg/m3
same,viscosity,[2]; 303.15 K,1.536 ± 0.033 mPa·s
same,mass density,[2]; 303.15 K,1023.6 ± 1.6 kg/m3
same,viscosity,[2]; 308.15 K,1.429 ± 0.03 mPa·s
same,mass density,[2]; 308.15 K,1019.49 ± 1.6 kg/m3
same,viscosity,[2]; 313.15 K,1.338 ± 0.029 mPa·s
same,mass density,[2]; 313.15 K,1014.74 ± 1.6 kg/m3
same,viscosity,[2]; 318.15 K,1.248 ± 0.027 mPa·s
same,mass density,[2]; 318.15 K,1010.2 ± 1.6 kg/m3
same,viscosity,[2]; 323.15 K,1.178 ± 0.025 mPa·s
same,mass density,[2]; 323.15 K,1005.89 ± 1.6 kg/m3
CN1CCCC1=O [N-methylpyrrolidone] + CC1COC(=O)O1,mass density,[2]; 293.15 K,1032.66 ± 1.6 kg/m3
same,viscosity,[2]; 298.15 K,1.677 ± 0.036 mPa·s
same,mass density,[2]; 298.15 K,1028.17 ± 1.6 kg/m3
same,viscosity,[2]; 303.15 K,1.536 ± 0.033 mPa·s
same,mass density,[2]; 303.15 K,1023.6 ± 1.6 kg/m3
same,viscosity,[2]; 308.15 K,1.429 ± 0.03 mPa·s
same,mass density,[2]; 308.15 K,1019.49 ± 1.6 kg/m3
same,viscosity,[2]; 313.15 K,1.338 ± 0.029 mPa·s
same,mass density,[2]; 313.15 K,1014.74 ± 1.6 kg/m3
same,viscosity,[2]; 318.15 K,1.248 ± 0.027 mPa·s
same,mass density,[2]; 318.15 K,1010.2 ± 1.6 kg/m3
same,viscosity,[2]; 323.15 K,1.178 ± 0.025 mPa·s
same,mass density,[2]; 323.15 K,1005.89 ± 1.6 kg/m3
CN1CCCC1=O [N-methylpyrrolidone],mass density,[1]; 293.15 K,1032.66 ± 1.6 kg/m3
same,viscosity,[1]; 298.15 K,1.677 ± 0.036 mPa·s
same,mass density,[1]; 298.15 K,1028.17 ± 1.6 kg/m3
same,viscosity,[1]; 303.15 K,1.536 ± 0.033 mPa·s
same,mass density,[1]; 303.15 K,1023.6 ± 1.6 kg/m3
same,viscosity,[1]; 308.15 K,1.429 ± 0.03 mPa·s
same,mass density,[1]; 308.15 K,1019.49 ± 1.6 kg/m3
same,viscosity,[1]; 313.15 K,1.338 ± 0.029 mPa·s
same,mass density,[1]; 313.15 K,1014.74 ± 1.6 kg/m3
same,viscosity,[1]; 318.15 K,1.248 ± 0.027 mPa·s
same,mass density,[1]; 318.15 K,1010.2 ± 1.6 kg/m3
same,viscosity,[1]; 323.15 K,1.178 ± 0.025 mPa·s
same,mass density,[1]; 323.15 K,1005.89 ± 1.6 kg/m3
